Square brackets hold non-standard residues; d marks the D form. Peptide text beside a SMILES is read from it. Pen = CC(C)(S)[C@H](N)C(=O)O; Mpa = O=C(O)CCS
Tests used:
[1] = target: Integrin alpha-IIb/beta-3 (Homo sapiens, UniProt P05106+P08514); test: Inhibition of platelet glycoprotein alpha IIb beta-3 integrin in ELISA
Homo sapiens = organism: Homo sapiens; test: Functional inhibition of the GPIIb-IIIa receptor was reflected as its ability to antagonize ADP induced platelet aggregation in human platelet-rich plasma; type: organism-based

Chain of Integrin alpha-IIb/beta-3 (P05106 27-788 limits assumed): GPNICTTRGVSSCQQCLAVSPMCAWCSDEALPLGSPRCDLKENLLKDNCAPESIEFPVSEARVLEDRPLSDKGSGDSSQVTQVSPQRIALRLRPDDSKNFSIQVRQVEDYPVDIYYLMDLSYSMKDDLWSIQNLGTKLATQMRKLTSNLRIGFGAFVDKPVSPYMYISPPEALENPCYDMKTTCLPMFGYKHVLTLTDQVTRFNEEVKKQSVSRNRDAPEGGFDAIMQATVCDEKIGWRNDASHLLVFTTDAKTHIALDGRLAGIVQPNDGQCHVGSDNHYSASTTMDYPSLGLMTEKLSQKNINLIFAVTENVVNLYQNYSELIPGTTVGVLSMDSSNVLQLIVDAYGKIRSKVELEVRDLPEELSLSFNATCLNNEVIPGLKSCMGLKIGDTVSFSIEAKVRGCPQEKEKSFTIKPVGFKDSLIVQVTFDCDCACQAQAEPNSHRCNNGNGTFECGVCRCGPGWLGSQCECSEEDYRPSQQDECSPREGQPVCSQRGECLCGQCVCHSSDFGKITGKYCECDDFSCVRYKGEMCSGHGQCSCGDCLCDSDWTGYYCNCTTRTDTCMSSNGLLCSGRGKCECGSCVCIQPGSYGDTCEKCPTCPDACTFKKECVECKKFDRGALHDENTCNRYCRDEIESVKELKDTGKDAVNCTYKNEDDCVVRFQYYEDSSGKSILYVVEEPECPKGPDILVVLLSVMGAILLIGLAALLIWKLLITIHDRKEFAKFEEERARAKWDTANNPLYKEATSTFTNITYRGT
Chain of Integrin alpha-IIb/beta-3 (P08514 32-887 limits assumed): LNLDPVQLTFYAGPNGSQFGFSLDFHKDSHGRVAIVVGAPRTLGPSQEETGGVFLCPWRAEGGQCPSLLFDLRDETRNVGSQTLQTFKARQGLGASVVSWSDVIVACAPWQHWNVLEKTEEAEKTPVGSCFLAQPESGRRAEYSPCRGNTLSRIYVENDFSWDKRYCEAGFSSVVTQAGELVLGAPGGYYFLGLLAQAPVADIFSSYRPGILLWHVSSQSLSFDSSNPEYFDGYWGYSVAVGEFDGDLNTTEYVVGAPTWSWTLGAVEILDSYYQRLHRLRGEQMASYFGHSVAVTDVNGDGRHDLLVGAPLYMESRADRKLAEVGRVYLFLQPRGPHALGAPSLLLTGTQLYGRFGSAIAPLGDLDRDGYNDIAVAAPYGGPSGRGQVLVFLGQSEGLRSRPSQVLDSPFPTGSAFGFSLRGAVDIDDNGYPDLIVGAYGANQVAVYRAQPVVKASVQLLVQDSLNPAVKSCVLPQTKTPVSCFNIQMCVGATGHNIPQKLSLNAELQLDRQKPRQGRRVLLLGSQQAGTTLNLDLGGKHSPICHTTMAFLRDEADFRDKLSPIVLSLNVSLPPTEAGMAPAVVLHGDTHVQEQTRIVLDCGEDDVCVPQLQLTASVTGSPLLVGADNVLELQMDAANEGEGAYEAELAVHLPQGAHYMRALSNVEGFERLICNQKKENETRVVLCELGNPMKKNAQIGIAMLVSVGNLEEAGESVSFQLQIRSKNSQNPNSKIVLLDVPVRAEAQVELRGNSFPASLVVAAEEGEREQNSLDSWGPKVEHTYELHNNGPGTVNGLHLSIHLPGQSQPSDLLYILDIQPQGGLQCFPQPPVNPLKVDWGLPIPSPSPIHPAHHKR
Chain of Integrin alpha-IIb/beta-3 (P08514 891-1039 limits assumed): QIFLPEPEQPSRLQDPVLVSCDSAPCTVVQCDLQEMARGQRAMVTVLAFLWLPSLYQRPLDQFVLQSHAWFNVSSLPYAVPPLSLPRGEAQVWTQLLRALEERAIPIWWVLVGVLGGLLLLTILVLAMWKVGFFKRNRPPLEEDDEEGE

| IC50 [1] | IC50 (Homo sapiens) | SMILES |
| --- | --- | --- |
| 0.1 µM | 0.65 µM | N=C(N)c1ccc2c(C(=O)NCCCCCCC(=O)O)c[nH]c2c1 |
| 0.15 µM | 1.3 µM | N=C(N)c1ccc2cc(C(=O)NCCCCCCC(=O)O)[nH]c2c1 |
| – | 67 µM | N=C(N)c1ccc(NCC(=O)NCCCCCCC(=O)O)cc1 |
| – | > 100 µM | N=C(N)c1ccc2[nH]c(C(=O)NCCCCCCCC(=O)O)cc2c1 |
| – | 2.7 µM | N=C(N)c1ccc2[nH]c(C(=O)NCCCCCCC(=O)O)cc2c1 |
| 30 µM | > 100 µM | N=C(N)c1ccc2[nH]c(C(=O)NCCCCCC(=O)O)cc2c1 |
| 64 µM | > 100 µM | N=C(N)c1cccc(NCC(=O)NCCCCCCC(=O)O)c1 |
| > 100 µM | > 100 µM | N=C(N)c1ccc2[nH]cc(C(=O)NCCCCCCC(=O)O)c2c1 |
| > 100 µM | > 100 µM | N=C(N)c1ccc2[nH]cc(C(=O)NCCCCCCCC(=O)O)c2c1 |
| 0.12 µM | 0.28 µM | CC(C)(S)[C@H](NC(=O)[C@H](CCCN=C(N)N)NC(=O)[C@H](Cc1c[nH]c2ccccc12)NC(=O)[C@H](CC(=O)O)NC(=O)CNC(=O)[C@H](CCCN=C(N)N)NC(=O)CCS)C(N)=O ([Mpa]RGDWR[Pen]-NH2) |

Source: ChEMBL document CHEMBL1128907, “Platelet glycoprotein IIbIIIa receptor (GPIIbIIIa) antagonists derived from amidinoindoles” (Bioorg Med Chem Lett, 1996)
